What was measured:
[1] = tested on: human neutrophil suspension; assay: Neutrophil adhesion test with LPS-activated human neutrophils (96-well plate, crystal violet, OD620); type: cell-based; settings: human neutrophils activated with E. coli lipopolysaccharide, 1 hour at 37° C.; control = 100%; FIG. 2A / FIG. 2B
Procedure: (§1) Neutrophils were collected from blood. Specifically, neutrophils were isolated from whole blood collected from healthy humans or dogs using Polymorphprep (Cosmo Bio). The separated neutrophil samples were centrifuged at 2000 rpm for about 40 minutes, then the supernatant was removed, and the residue was transferred to RPMI (SIGMA) medium supplemented with 10-mass % fetal bovine serum (Tissue Culture Biologicals, USA) and diluted to obtain a cell count of 4×10^6 cells/ml, preparing human and canine neutrophil suspensions, respectively. […] The neutrophil adhesion rate was determined as follows. The value obtained by quantifying the activated neutrophils adhered to the wells in the control without containing lysozyrne-chitosan complex or decanoic acid was set as 100%, and compared with the value obtained by quantifying the activated neutrophils adhered to the wells in the same way for the test substances in each Example and Comparative Example. Neutrophil Adhesion Rate (%)=[Quantitative Value of Adhesive Activated Neutrophils in Each Example and Comparative Example]/[Quantitative Value of Adhesive Activated Neutrophils in Control]×100 In the present invention, the ability to suppress the neutrophil adhesive reaction was evaluated by the following procedure. […]

[2] = tested on: canine neutrophil suspension; assay: Neutrophil adhesion test with LPS-activated canine neutrophils (96-well plate, crystal violet, OD620 and microscopy); type: cell-based, dogs; settings: 0.2 mg/ml lysozyme-chitosan complex and/or 0.4 mg/ml decanoic acid, magnification 40 times, FIG. 3B to 3D
Procedure: as §1

## CCCCCCCCCC(=O)O [decanoic acid]
[1]
  neutrophil adhesion rate (%) as the concentration of test substance increases: did not decrease
[2]
  distribution of adherent neutrophils stained with crystal violet (photomicrograph): widely distributed

From patent US12178859B2, “Anti inflammatory composition” (WAKO FILTER TECHNOLOGY CO., LTD., priority 2019, dated 2024)
